Patent publication US20250250230A1, “HETEROCYCLIC COMPOUND” (TAKEDA PHARMACEUTICAL COMPANY LIMITED, priority 2022, published 2025)

Molecular target: T1, human orexin type 2 receptor (Homo sapiens, UniProt O43614)
T1 construct: expressed in transfected cells
T1 sequence (O43614 1-444): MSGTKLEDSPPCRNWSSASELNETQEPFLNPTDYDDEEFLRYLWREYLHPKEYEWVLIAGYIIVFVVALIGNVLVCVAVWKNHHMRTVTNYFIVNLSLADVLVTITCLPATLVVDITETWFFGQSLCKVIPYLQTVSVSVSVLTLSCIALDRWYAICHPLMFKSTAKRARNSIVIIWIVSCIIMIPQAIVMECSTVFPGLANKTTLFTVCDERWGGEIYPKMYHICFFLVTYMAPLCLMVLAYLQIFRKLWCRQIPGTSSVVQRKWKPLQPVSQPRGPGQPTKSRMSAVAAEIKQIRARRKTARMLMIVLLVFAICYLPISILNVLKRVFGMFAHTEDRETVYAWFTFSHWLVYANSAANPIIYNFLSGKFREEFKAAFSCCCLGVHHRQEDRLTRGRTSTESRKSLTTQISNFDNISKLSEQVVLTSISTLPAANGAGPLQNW
Test: Measurement of orexin type 2 receptor agonist activity (calcium fluorescence, Fluo-4 AM, FDSS)
Type: cell-based
Settings: test compound 3 μM; CHO cells expressing human OX2 receptor; DMSO = 0%, orexin A (human) = 100%
In short: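 Agonist response scaled between vehicle (0%) and human orexin A at 10 nM final (100%), from 2-min kinetic Fluo-4 fluorescence reads. Stable hOX2R CHO-K1 clone, dye-loaded in HBSS/20 mM HEPES/0.1% BSA with 1.25 mM probenecid before compound addition.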

SMILES	OX2R agonist activity (3 μM, %)
CS(=O)(=O)NC[C@@H]1CCN1C(=O)[C@@H]1C[C@H]1c1ccccc1-c1c(F)cc(F)cc1F [Example 403, N-({(2S)-1-[(1R,2R)-2-(2′,4′,6′-trifluoro[1,1′-biphenyl]-2-yl)cyclopropane-1-carbonyl]azetidin-2-yl}methyl)methanesulfonamide]	83%
CS(=O)(=O)NC[C@H]1[C@H](C(F)F)CN1C(=O)[C@@H]1C[C@@]1(F)c1ccccc1-c1c(F)cccc1F [Example 405, N-{[(2R,3R)-1-[(1S,2S)-2-(2′,6′-difluoro[1,1′-biphenyl]-2-yl)-2-fluorocyclopropane-1-carbonyl]-3-(difluoromethyl)azetidin-2-yl]methyl}methanesulfonamide]	96%
CC(=O)[C@@H]1CN(C(=O)[C@@H]2C[C@@]2(F)c2ccccc2-c2c(F)cccc2F)[C@H]1CNS(C)(=O)=O [Example 406, N-({(2R,3R)-3-acetyl-1-[(1S,2S)-2-(2′,6′-difluoro[1,1′-biphenyl]-2-yl)-2-fluorocyclopropane-1-carbonyl]azetidin-2-yl}methyl)methanesulfonamide]	50%
CS(=O)(=O)NCC1N(C(=O)[C@@H]2C[C@@]2(F)c2ccccc2-c2c(F)cccc2F)CC1(F)F (stereo partly drawn) [Example 409, N-({(2R)-1-[(1S,2S)-2-(2′,6′-difluoro[1,1′-biphenyl]-2-yl)-2-fluorocyclopropane-1-carbonyl]-3,3-difluoroazetidin-2-yl}methyl)methanesulfonamide, or N-({(2S)-1-[(1S,2S)-2-(2′,6′-difluoro[1,1′-biphenyl]-2-yl)-2-fluorocyclopropane-1-carbonyl]-3,3-difluoroazetidin-2-yl}methyl)methanesulfonamide]	100%
CCS(=O)(=O)NC[C@@H]1[C@H](F)CN1C(=O)[C@@H]1C[C@@]1(F)c1ccc(C)cc1-c1c(F)cccc1F [Example 410, N-({(2R,3R)-1-[(1S,2S)-2-(2′,6′-difluoro-5-methyl[1,1′-biphenyl]-2-yl)-2-fluorocyclopropane-1-carbonyl]-3-fluoroazetidin-2-yl}methyl)ethanesulfonamide]	103%
CCS(=O)(=O)NC[C@@H]1[C@@H](F)CN1C(=O)[C@@H]1C[C@@]1(F)c1ccccc1-c1c(F)cccc1F [Example 414, N-({(2R,3S)-1-[(1S,2S)-2-(2′,6′-difluoro[1,1′-biphenyl]-2-yl)-2-fluorocyclopropane-1-carbonyl]-3-fluoroazetidin-2-yl}methyl)ethanesulfonamide]	101%
CC(NS(C)(=O)=O)[C@@H]1[C@H](F)CN1C(=O)[C@@H]1C[C@@]1(F)c1ccccc1-c1c(F)cccc1F (stereo partly drawn) [Example 415, N-[(1R)-1-{(2R,3R)-1-[(1S,2S)-2-(2′,6′-difluoro[1,1′-biphenyl]-2-yl)-2-fluorocyclopropane-1-carbonyl]-3-fluoroazetidin-2-yl}ethyl]methanesulfonamide, or N-[(1S)-1-{(2R,3R)-1-[(1S,2S)-2-(2′,6′-difluoro[1,1′-biphenyl]-2-yl)-2-fluorocyclopropane-1-carbonyl]-3-fluoroazetidin-2-yl}ethyl]methanesulfonamide]	96%
CS(=O)(=O)NC([C@@H]1CCN1C(=O)[C@@H]1C[C@@]1(F)c1ccccc1-c1c(F)cccc1F)C1(O)CC1 (stereo partly drawn) [Example 418, N-[(R)-{(2S)-1-[(1S,2S)-2-(2′,6′-difluoro[1,1′-biphenyl]-2-yl)-2-fluorocyclopropane-1-carbonyl]azetidin-2-yl}(1-hydroxycyclopropyl)methyl]methane-sulfonamide, or N-[(S)-{(2S)-1-[(1S,2S)-2-(2′,6′-difluoro[1,1′-biphenyl]-2-yl)-2-fluorocyclopropane-1-carbonyl]azetidin-2-yl}(1-hydroxycyclopropyl)methyl]methanesulfonamide]	99%
CN(C)S(=O)(=O)NC[C@@H]1[C@H](F)CN1C(=O)[C@@H]1C[C@@]1(F)c1ccc(F)cc1-c1c(F)cccc1F [Example 424, N′-({(2R,3R)-3-fluoro-1-[(1S,2S)-2-fluoro-2-(2′,5,6′-trifluoro[1,1′-biphenyl]-2-yl)cyclopropane-1-carbonyl]azetidin-2-yl}methyl)-N,N-dimethylsulfuric diamide]	98%
CC(C)NS(=O)(=O)NC[C@@H]1[C@H](F)CN1C(=O)[C@@H]1C[C@@]1(F)c1ccc(F)cc1-c1c(F)cccc1F [Example 425, N-({(2R,3R)-3-fluoro-1-[(1S,2S)-2-fluoro-2-(2′,5,6′-trifluoro[1,1′-biphenyl]-2-yl)cyclopropane-1-carbonyl]azetidin-2-yl}methyl)-N′-propan-2-ylsulfuric diamide]	72%
CCS(=O)(=O)NC[C@H]1[C@@H](F)CN1C(=O)[C@@H]1C[C@@]1(F)c1ccccc1-c1c(F)cccc1F [Example 426, N-({(2S,3S)-1-[(1S,2S)-2-(2′,6′-difluoro[1,1′-biphenyl]-2-yl)-2-fluorocyclopropane-1-carbonyl]-3-fluoroazetidin-2-yl}methyl)ethanesulfonamide]	104%
CS(=O)(=O)NC[C@@H]1[C@H](F)CN1C(=O)C1(CC#N)CC1c1ccccc1-c1c(F)cccc1F (stereo partly drawn) [Example 428, N-({(2R,3R)-1-[(1R,2R)-1-(cyanomethyl)-2-(2′,6′-difluoro[1,1′-biphenyl]-2-yl)cyclopropane-1-carbonyl]-3-fluoroazetidin-2-yl}methyl)methanesulfonamide, or N-({(2R,3R)-1-[(1S,2S)-1-(cyanomethyl)-2-(2′,6′-difluoro[1,1′-biphenyl]-2-yl)cyclopropane-1-carbonyl]-3-fluoroazetidin-2-yl}methyl)methanesulfonamide]	53%

Now from value to compound:

OX2R agonist activity (3 μM, %)	SMILES
79%	CC(NS(C)(=O)=O)[C@@H]1[C@H](C)CN1C(=O)[C@@H]1C[C@@]1(F)c1ccccc1-c1c(F)cccc1F (stereo partly drawn) [Example 401, N-[(1R)-1-{(2S,3R)-1-[(1S,2S)-2-(2′,6′-difluoro[1,1′-biphenyl]-2-yl)-2-fluorocyclopropane-1-carbonyl]-3-methylazetidin-2-yl}ethyl]methanesulfonamide, or N-[(1S)-1-{(2S,3R)-1-[(1S,2S)-2-(2′,6′-difluoro[1,1′-biphenyl]-2-yl)-2-fluorocyclopropane-1-carbonyl]-3-methylazetidin-2-yl}ethyl]methanesulfonamide]
73%	CS(=O)(=O)NC[C@@H]1CCN1C(=O)[C@@H]1C[C@H]1c1ccccc1-c1c(F)ccc(F)c1F [Example 408, N-({(2S)-1-[(1R,2R)-2-(2′,3′,6′-trifluoro[1,1′-biphenyl]-2-yl)cyclopropane-1-carbonyl]azetidin-2-yl}methyl)methanesulfonamide]
109%	CS(=O)(=O)NC[C@@H]1[C@H](F)CN1C(=O)[C@@H]1C[C@@]1(F)c1ccc(F)cc1-c1c(F)cccc1F [Example 413, N-({(2R,3R)-3-fluoro-1-[(1S,2S)-2-fluoro-2-(2′,5,6′-trifluoro[1,1′-biphenyl]-2-yl)cyclopropane-1-carbonyl]azetidin-2-yl}methyl)methanesulfonamide]
97%	CCS(=O)(=O)NC(C)[C@@H]1[C@H](F)CN1C(=O)[C@@H]1C[C@@]1(F)c1ccccc1-c1c(F)cccc1F (stereo partly drawn) [Example 416, N-[(1R)-1-{(2R,3R)-1-[(1S,2S)-2-(2′,6′-difluoro[1,1′-biphenyl]-2-yl)-2-fluorocyclopropane-1-carbonyl]-3-fluoroazetidin-2-yl}ethyl]ethanesulfonamide, or N-[(1S)-1-{(2R,3R)-1-[(1S,2S)-2-(2′,6′-difluoro[1,1′-biphenyl]-2-yl)-2-fluorocyclopropane-1-carbonyl]-3-fluoroazetidin-2-yl}ethyl]ethanesulfonamide]
98%	CCS(=O)(=O)NC[C@H]1[C@H](F)CN1C(=O)[C@@H]1C[C@@]1(F)c1ccccc1-c1c(F)cccc1F [Example 417, N-({(2S,3R)-1-[(1S,2S)-2-(2′,6′-difluoro[1,1′-biphenyl]-2-yl)-2-fluorocyclopropane-1-carbonyl]-3-fluoroazetidin-2-yl}methyl)ethanesulfonamide]
104%	COC[C@H](NS(C)(=O)=O)C1CCN1C(=O)[C@@H]1C[C@@]1(F)c1ccccc1-c1c(F)cccc1F (stereo partly drawn) [Example 419, N-[(1R)-1-{(2R)-1-[(1S,2S)-2-(2′,6′-difluoro[1,1′-biphenyl]-2-yl)-2-fluorocyclopropane-1-carbonyl]azetidin-2-yl}-2-methoxyethyl]methanesulfonamide, or N-[(1R)-1-{(2S)-1-[(1S,2S)-2-(2′,6′-difluoro[1,1′-biphenyl]-2-yl)-2-fluorocyclopropane-1-carbonyl]azetidin-2-yl}-2-methoxyethyl]methanesulfonamide]
96%	CCNS(=O)(=O)NC[C@@H]1[C@H](F)CN1C(=O)[C@@H]1C[C@@]1(F)c1ccc(F)cc1-c1c(F)cccc1F [Example 427, N-ethyl-N′-({(2R,3R)-3-fluoro-1-[(1S,2S)-2-fluoro-2-(2′,5,6′-trifluoro[1,1′-biphenyl]-2-yl)cyclopropane-1-carbonyl]azetidin-2-yl}methyl)sulfuric diamide]
